Laboratory results reported in patent publication US20250355000A1, “URINARY BRANCHED-CHAIN AMINO ACIDS (UBCAAS) AS INSULIN RESISTANCE BIOMARKERS” (SKILLCELL, priority 2022, published 2025).
Like-named read-outs stand apart in the source and are kept apart here.

System: Leucine Dehydrogenase (LeuDH) from B. cereus containing a SUMO-protein domain
Format: biochemical, Bacillus cereus
Details: for A 600 nm (absorbance values for L-amino acids): 15 minutes at 37° C., 100 mM Tris-HCl pH7.5, MTT reduction
Excerpt: The IDIr biochemical network uses the enzyme Leucine Dehydrogenase (LeuDH) for oxidizing the branched-chain amino acids (BCAA) and for producing the colorimetric substrate, blue reduced MTT. The absorbance values are proportional to BCAA levels. Detection and measurement branched-chain amino acids in biological fluids (serum and urine) correlate with insulin-resistance indexes. Thus, the substrate specificity (other L-amino acids than BCAA) of Leucine Dehydrogenase (LeuDH) from B. cereus containing a SUMO-protein domain needs to be verified to avoid erroneous results using IDIr test.
Analysis of the substrate specificity of the Leucine Dehydrogenase co-expressed with SUMO-protein domain was done using 18 natural proteinogenic L-amino acids in the same conditions used for determining the kinetic parameter of LeuDH with BCAA as substrates.
All solutions were prepared in 100 mM Tris-HCl pH7.5 buffer
• NAD+50 mM • Ascorbate Oxidase 10 U/mL • 1M-PMS 0.2 mM
• MTT 2 mM • Leucine Dehydrogenase 75 U/mL • L-amino acids • L-Leucine 1 mM • L-Valine 1 mM • L-Isoleucine 1 mM • L-Alanine 1 mM • L-Arginine 1 mM • L-Aspartate 1 mM • L-Glycine 1 mM • L-Glutamate 1 mM • L-Glutamine 1 mM • L-Histidine 1 mM • L-Lysine 1 mM • L-Methionine 1 mM • L-Phenylalanine 1 mM • L-Proline 1 mM • L-Serine 1 mM • L-Threonine 1 mM • L-Tryptophan 1 mM • L-Tyrosine 1 mM
8 μL of A Solution were pre-incubated with 53 μL of each L-amino acid separately in a well of the microplate for 5 minutes at 37° C. Then, 4 μL of B Solution were added. The kinetics of the reactions were followed during 30 minutes at 37° C. Absorbances were read at 600 nm every 60 seconds.
Blanks were performed using Tris-HCl 100 mM pH 7.5 buffer containing no L-amino acid during the incubation with A solution. Experiments were performed in duplicates. Results were normalized to the oxidation of L-leucine at 15 minutes.
Oxidation of L-amino acids was followed by colorimetric reduction of Thyazolyl Blue Tetrazolium Bromide. Absorbance at 600 nm is proportional to the concentration of L-amino acids in solution.

[1] = normalized to L-Leucine oxidation at 15 minutes (100%), 37° C., L-amino acid 1 mM

Row | SMILES | A 600 nm (absorbance values for L-amino acids) (L-amino acid 1 mM) | Normalized activity (%) [1] | Normalized activity (%)
1 | C[C@H](N)C(=O)O [ALA, L-Alanine] | 0.002 | 0.3% | –
2 | N=C(N)NCCC[C@H](N)C(=O)O [ARG, L-Arginine] | 0.003 | 0.4% | –
3 | N[C@@H](CC(=O)O)C(=O)O [ASP, L-Aspartate] | 0.000 | 0.0% | –
4 | NC(=O)CC[C@H](N)C(=O)O [GLN, L-Glutamine] | 0.001 | 0.2% | –
5 | N[C@@H](CCC(=O)O)C(=O)O [GLU, L-Glutamate] | 0.002 | 0.3% | –
6 | NCC(=O)O [GLY, L-Glycine] | 0.001 | – | 0.1%
7 | N[C@@H](Cc1c[nH]cn1)C(=O)O [HIS, L-Histidine] | 0.001 | 0.2% | –
8 | CC[C@H](C)[C@H](N)C(=O)O [ILE, L-Isoleucine] | 0.601 | 102.5% | –
9 | CC(C)C[C@H](N)C(=O)O [LEU, L-Leucine] | 0.587 | 100.0% | –
10 | NCCCC[C@H](N)C(=O)O [LYS, L-Lysine] | 0.001 | 0.1% | –
11 | CSCC[C@H](N)C(=O)O [MET, L-Methionine] | 0.019 | – | 3.2%
12 | N[C@@H](Cc1ccccc1)C(=O)O [PHE, L-Phenylalanine] | 0.002 | 0.3% | –
13 | O=C(O)[C@@H]1CCCN1 [PRO, L-Proline] | 0.008 | – | 1.3%
14 | N[C@@H](CO)C(=O)O [SER, L-Serine] | 0.001 | 0.2% | –
15 | C[C@@H](O)[C@H](N)C(=O)O [THR, L-Threonine] | 0.002 | 0.3% | –
16 | N[C@@H](Cc1c[nH]c2ccccc12)C(=O)O [TRP, L-Tryptophan] | 0.003 | 0.4% | –
17 | N[C@@H](Cc1ccc(O)cc1)C(=O)O [TYR, L-Tyrosine] | 0.002 | 0.3% | –
18 | CC(C)[C@H](N)C(=O)O [VAL, L-Valine] | 0.612 | 104.3% | –
